The record followed here is patent US20240279278A1, “NMU RECEPTOR 2 AGONISTS” (Boehringer Ingelheim International GmbH, priority 2023, published 2024).

Common to all, as to assay type: cell-based
The target in assay [1] is T1, human NMUR2 receptor (Homo sapiens, UniProt Q9GZQ4). Kind of assay: IP1 Gq HTRF assay, activation of human NMUR2 in human plasma. The arrangement: expressed in transfected cells; host or cells: CHO-K1. Particulars: CHO-K1 cells expressing human NMUR2, 100% human plasma; read-out: EC50 (hNMUR2) human plasma. In a few lines: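 CHO-K1 cells stably expressing human NMUR2 exposed to peptide agonists (8-point dose-response) in 100% human plasma with 50 mM LiCl, 1% DMSO, for 1 h at 37° C. IP1 accumulation read by HTRF competition (665/620 nm ratio). EC50 from 4-parameter sigmoidal fit.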
T1 sequence (Q9GZQ4 whole entry): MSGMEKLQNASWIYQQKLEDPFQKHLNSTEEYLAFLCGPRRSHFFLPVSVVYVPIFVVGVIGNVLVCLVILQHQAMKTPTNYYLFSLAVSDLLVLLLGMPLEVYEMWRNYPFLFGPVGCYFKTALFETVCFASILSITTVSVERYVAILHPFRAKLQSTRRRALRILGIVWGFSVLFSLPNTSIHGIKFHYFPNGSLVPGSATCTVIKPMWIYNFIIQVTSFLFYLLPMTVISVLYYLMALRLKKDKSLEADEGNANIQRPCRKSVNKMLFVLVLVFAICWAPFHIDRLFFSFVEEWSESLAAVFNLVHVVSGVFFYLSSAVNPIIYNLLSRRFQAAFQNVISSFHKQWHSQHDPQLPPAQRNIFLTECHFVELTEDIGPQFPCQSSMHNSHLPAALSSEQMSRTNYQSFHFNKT

In another assay the target is T2, human NMUR1 receptor (Homo sapiens, UniProt Q9HB89).
T2 construct: expressed in transfected cells; host or cells: CHO-K1
T2 sequence (Q9HB89 1-426): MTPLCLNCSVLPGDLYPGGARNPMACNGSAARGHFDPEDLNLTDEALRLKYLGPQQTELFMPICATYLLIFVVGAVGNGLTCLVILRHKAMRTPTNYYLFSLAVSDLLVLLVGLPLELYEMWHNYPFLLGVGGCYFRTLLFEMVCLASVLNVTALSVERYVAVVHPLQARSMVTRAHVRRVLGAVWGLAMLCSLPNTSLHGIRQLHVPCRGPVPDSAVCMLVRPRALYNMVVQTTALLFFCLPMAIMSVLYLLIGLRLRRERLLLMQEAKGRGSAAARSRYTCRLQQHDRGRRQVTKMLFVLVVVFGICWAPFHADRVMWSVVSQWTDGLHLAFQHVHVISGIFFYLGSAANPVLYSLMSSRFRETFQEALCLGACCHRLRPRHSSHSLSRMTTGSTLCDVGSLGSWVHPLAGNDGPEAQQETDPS
Kind of assay: IP1 Gq HTRF assay, activation of human NMUR1 in buffer. Particulars: CHO-K1 cells expressing human NMUR1, stimulation buffer with 0.1% BSA; read-out: EC50 (hNMUR1) buffer. An outline of the steps:
(§1)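 CHO-K1 cells stably expressing human NMUR1 or NMUR2, seeded 24 h before assay, stimulated with peptide agonists (8-point dose-response, 1% DMSO final) in HEPES/HBSS buffer with 50 mM LiCl and 0.1% BSA, pH 7.4, 1 h at 37 °C. IP1 accumulation read by HTRF competition (665/620 nm); EC50 from 4-parameter sigmoidal fit.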

Assay [2] deals with T1, human NMUR2 receptor. Nature of the assay: IP1 Gq HTRF assay, activation of human NMUR2 in buffer. The arrangement: expressed in transfected cells; host or cells: CHO-K1. Conditions: CHO-K1 cells expressing human NMUR2, stimulation buffer with 0.1% BSA; read-out: EC50 (hNMUR2) buffer. An outline of the steps: as §1
For orientation: Time-resolved FRET reads energy transfer from a long-lived donor to a nearby acceptor.

pEC50: −log10 of the molar value. Starred links: 1 amine or outer side, 2 acyl side, 3 side chain; linkers in the order of their positions; H or OH if unused. Non-standard residues stand in square brackets, D forms with d. Residues, ends and D or L forms follow the SMILES beside them. *: point of attachment. Pipz(1-CH2CO,4-CH2CH2NH) = O=C(CN1CCN(CCN[*:1])CC1)[*:2]; C18 diacid = O=C(O)CCCCCCCCCCCCCCCCC(=O)*; γGlu = O=C(O)[C@H](CCC(=O)[*:2])N[*:1]; 2Pal = N[C@@H](Cc1ccccn1)C(=O)O; 3Pal = N[C@@H](Cc1cccnc1)C(=O)O; 4Pal = N[C@@H](Cc1ccncc1)C(=O)O; NMeL = CN[C@@H](CC(C)C)C(=O)O; NMeA = CN[C@@H](C)C(=O)O; Nle = CCCC[C@H](N)C(=O)O; Sar = CNCC(=O)O Some results are limits rather than exact numbers.

A word on the pEC50: it is the negative decadic logarithm of the EC50, by convention in mol/L. `CCCC[C@H](NC(=O)[C@H](CC(C)C)N(C)C(=O)[C@H](Cc1ccccc1)NC(=O)[C@H](Cc1ccc(O)cc1)NC(=O)CN1CCN(CCNC(=O)CN(C)C(=O)CN(C)C(=O)CN(C)C(=O)CN(C)C(=O)CN(C)C(=O)CN(C)C(=O)CN(C)C(=O)CN(C)C(=O)CN(C)C(=O)CN(C)C(=O)CN(C)C(=O)CN(C)C(=O)CN(C)C(=O)CN(C)C(=O)CN(C)C(=O)CC[C@H](NC(=O)CC[C@H](NC(=O)CC[C@H](NC(=O)CCCCCCCCCCCCCCCCC(=O)O)C(=O)O)C(=O)O)C(=O)O)CC1)C(=O)N(C)[C@@H](CCCNC(=N)N)C(=O)N(C)[C@@H](C)C(=O)N[C@@H](CCCNC(=N)N)C(=O)NCC(N)=O` [Compound 53, C18DA-gGlu3-Sar15-AEPipAc-Tyr-Phe-NMeLeu-Nle-NMeArg-NMeAla-Arg-Gly-NH2] (HELM PEPTIDE1{[O=C(O)CCCCCCCCCCCCCCCCC(=O)[*:2]].[gGlu].[gGlu].[gGlu].[Sar].[Sar].[Sar].[Sar].[Sar].[Sar].[Sar].[Sar].[Sar].[Sar].[Sar].[Sar].[Sar].[Sar].[Sar].[O=C(CN1CCN(CCN[*:1])CC1)[*:2]].Y.F.[meL].[Nle].[meR].[meA].R.G.[am]}$$$$V2.0): the negative logarithm of the EC50 (pEC50) on human NMUR2 receptor [1] was 7.60; at human NMUR1 receptor, 5.89; on human NMUR2 receptor [2] it was 8.40.

Take `CCCC[C@H](NC(=O)[C@H](CC(C)C)N(C)C(=O)[C@H](Cc1ccccc1)NC(=O)[C@H](Cc1ccc(O)cc1)NC(=O)CN1CCN(CCNC(=O)CN(C)C(=O)CN(C)C(=O)CN(C)C(=O)CN(C)C(=O)CN(C)C(=O)CN(C)C(=O)CN(C)C(=O)CN(C)C(=O)CN(C)C(=O)CN(C)C(=O)CN(C)C(=O)CN(C)C(=O)CN(C)C(=O)CN(C)C(=O)CN(C)C(=O)CC[C@H](NC(=O)CC[C@H](NC(=O)CC[C@H](NC(=O)CCCCCCCCCCCCCCCCC(=O)O)C(=O)O)C(=O)O)C(=O)O)CC1)C(=O)N[C@@H](Cc1cccnc1)C(=O)N1CCC[C@H]1C(=O)N[C@@H](CCCNC(=N)N)C(=O)NCC(N)=O` [Compound 54, C18DA-gGlu3-Sar15-AEPipAc-Tyr-Phe-NMeLeu-Nle-3Pal-Pro-Arg-Gly-NH2] ({C18 diacid-γGlu-γGlu-γGlu}-[Sar][Sar][Sar][Sar][Sar][Sar][Sar][Sar][Sar][Sar][Sar][Sar][Sar][Sar][Sar][Pipz(1-CH2CO,4-CH2CH2NH)]YF[NMeL][Nle][3Pal]PRG-NH2): the figures for the pEC50 at human NMUR2 receptor [1], at human NMUR1 receptor and on human NMUR2 receptor [2] were 6.91, under 6.00 and 7.55, respectively.

For the molecule `CCCC[C@H](NC(=O)[C@H](CC(C)C)N(C)C(=O)[C@H](Cc1ccccc1)NC(=O)[C@H](Cc1ccc(O)cc1)NC(=O)CN1CCN(CCNC(=O)CN(C)C(=O)CN(C)C(=O)CN(C)C(=O)CN(C)C(=O)CN(C)C(=O)CN(C)C(=O)CN(C)C(=O)CN(C)C(=O)CN(C)C(=O)CN(C)C(=O)CN(C)C(=O)CN(C)C(=O)CN(C)C(=O)CN(C)C(=O)CN(C)C(=O)CC[C@H](NC(=O)CC[C@H](NC(=O)CC[C@H](NC(=O)CCCCCCCCCCCCCCCCC(=O)O)C(=O)O)C(=O)O)C(=O)O)CC1)C(=O)N[C@@H](Cc1c[nH]cn1)C(=O)N(C)[C@@H](C)C(=O)N[C@@H](CCCNC(=N)N)C(=O)NCC(N)=O` [Compound 55, C18DA-gGlu3-Sar15-AEPipAc-Tyr-Phe-NMeLeu-Nle-His-NMeAla-Arg-Gly-NH2] (HELM PEPTIDE1{[O=C(O)CCCCCCCCCCCCCCCCC(=O)[*:2]].[gGlu].[gGlu].[gGlu].[Sar].[Sar].[Sar].[Sar].[Sar].[Sar].[Sar].[Sar].[Sar].[Sar].[Sar].[Sar].[Sar].[Sar].[Sar].[O=C(CN1CCN(CCN[*:1])CC1)[*:2]].Y.F.[meL].[Nle].H.[meA].R.G.[am]}$$$$V2.0), the pEC50 is 6.53 on human NMUR2 receptor [1], under 6.00 on human NMUR1 receptor and 7.54 on human NMUR2 receptor [2].

As for `CCCC[C@H](NC(=O)[C@H](CC(C)C)N(C)C(=O)[C@H](Cc1ccccc1)NC(=O)[C@H](Cc1ccc(O)cc1)NC(=O)CN1CCN(CCNC(=O)CN(C)C(=O)CN(C)C(=O)CN(C)C(=O)CN(C)C(=O)CN(C)C(=O)CN(C)C(=O)CN(C)C(=O)CN(C)C(=O)CN(C)C(=O)CN(C)C(=O)CN(C)C(=O)CN(C)C(=O)CN(C)C(=O)CN(C)C(=O)CN(C)C(=O)CC[C@H](NC(=O)CC[C@H](NC(=O)CC[C@H](NC(=O)CCCCCCCCCCCCCCCCC(=O)O)C(=O)O)C(=O)O)C(=O)O)CC1)C(=O)N[C@@H](Cc1ccccn1)C(=O)N1CCC[C@H]1C(=O)N[C@@H](CCCNC(=N)N)C(=O)NCC(N)=O` [Compound 56, C18DA-gGlu3-Sar15-AEPipAc-Tyr-Phe-NMeLeu-Nle-2Pal-Pro-Arg-Gly-NH2] ({C18 diacid-γGlu-γGlu-γGlu}-[Sar][Sar][Sar][Sar][Sar][Sar][Sar][Sar][Sar][Sar][Sar][Sar][Sar][Sar][Sar][Pipz(1-CH2CO,4-CH2CH2NH)]YF[NMeL][Nle][2Pal]PRG-NH2), the pEC50 on human NMUR2 receptor [1] was 6.36; at human NMUR1 receptor, under 6.00; on human NMUR2 receptor [2] it was 7.14.

As to `CCCC[C@H](NC(=O)[C@H](CC(C)C)N(C)C(=O)[C@H](Cc1ccccc1)NC(=O)[C@H](Cc1ccc(O)cc1)NC(=O)CN1CCN(CCNC(=O)CN(C)C(=O)CN(C)C(=O)CN(C)C(=O)CN(C)C(=O)CN(C)C(=O)CN(C)C(=O)CN(C)C(=O)CN(C)C(=O)CN(C)C(=O)CN(C)C(=O)CN(C)C(=O)CN(C)C(=O)CN(C)C(=O)CN(C)C(=O)CN(C)C(=O)CC[C@H](NC(=O)CC[C@H](NC(=O)CC[C@H](NC(=O)CCCCCCCCCCCCCCCCC(=O)O)C(=O)O)C(=O)O)C(=O)O)CC1)C(=O)N[C@@H](Cc1cccnc1)C(=O)N(C)[C@@H](C)C(=O)N[C@@H](CCCNC(=N)N)C(=O)NCC(N)=O` [Compound 57, C18DA-gGlu3-Sar15-AEPipAc-Tyr-Phe-NMeLeu-Nle-3Pal-NMeAla-Arg-Gly-NH2] ({C18 diacid-γGlu-γGlu-γGlu}-[Sar][Sar][Sar][Sar][Sar][Sar][Sar][Sar][Sar][Sar][Sar][Sar][Sar][Sar][Sar][Pipz(1-CH2CO,4-CH2CH2NH)]YF[NMeL][Nle][3Pal][NMeA]RG-NH2), the pEC50 at human NMUR2 receptor [1] is 6.29; on human NMUR1 receptor it was under 6.00; on human NMUR2 receptor [2], 6.96.

On to `CCCC[C@H](NC(=O)[C@H](CC(C)C)N(C)C(=O)[C@H](Cc1ccccc1)NC(=O)[C@H](Cc1ccc(O)cc1)NC(=O)CN1CCN(CCNC(=O)CN(C)C(=O)CN(C)C(=O)CN(C)C(=O)CN(C)C(=O)CN(C)C(=O)CN(C)C(=O)CN(C)C(=O)CN(C)C(=O)CN(C)C(=O)CN(C)C(=O)CN(C)C(=O)CN(C)C(=O)CN(C)C(=O)CN(C)C(=O)CN(C)C(=O)CC[C@H](NC(=O)CC[C@H](NC(=O)CC[C@H](NC(=O)CCCCCCCCCCCCCCCCC(=O)O)C(=O)O)C(=O)O)C(=O)O)CC1)C(=O)N[C@@H](Cc1ccncc1)C(=O)N(C)[C@@H](C)C(=O)N[C@@H](CCCNC(=N)N)C(=O)NCC(N)=O` [Compound 58, C18DA-gGlu3-Sar15-AEPipAc-Tyr-Phe-NMeLeu-Nle-4Pal-NMeAla-Arg-Gly-NH2] ({C18 diacid-γGlu-γGlu-γGlu}-[Sar][Sar][Sar][Sar][Sar][Sar][Sar][Sar][Sar][Sar][Sar][Sar][Sar][Sar][Sar][Pipz(1-CH2CO,4-CH2CH2NH)]YF[NMeL][Nle][4Pal][NMeA]RG-NH2), for which the pEC50 on human NMUR2 receptor [1] is 6.15; on human NMUR1 receptor, under 6.00; on human NMUR2 receptor [2], 6.85.
